According to PMC3426363 (Pharmaceutical research, 2011):

What was measured:
UGT1A1 [1] = target: T1, UGT1A1 (Homo sapiens, UniProt P22309); experiment: UGT1A1 glucuronidation kinetics of flavonols; format: in vitro ADME; details: for Ks: substrate inhibition constant
T1 sequence (P22309 26-533): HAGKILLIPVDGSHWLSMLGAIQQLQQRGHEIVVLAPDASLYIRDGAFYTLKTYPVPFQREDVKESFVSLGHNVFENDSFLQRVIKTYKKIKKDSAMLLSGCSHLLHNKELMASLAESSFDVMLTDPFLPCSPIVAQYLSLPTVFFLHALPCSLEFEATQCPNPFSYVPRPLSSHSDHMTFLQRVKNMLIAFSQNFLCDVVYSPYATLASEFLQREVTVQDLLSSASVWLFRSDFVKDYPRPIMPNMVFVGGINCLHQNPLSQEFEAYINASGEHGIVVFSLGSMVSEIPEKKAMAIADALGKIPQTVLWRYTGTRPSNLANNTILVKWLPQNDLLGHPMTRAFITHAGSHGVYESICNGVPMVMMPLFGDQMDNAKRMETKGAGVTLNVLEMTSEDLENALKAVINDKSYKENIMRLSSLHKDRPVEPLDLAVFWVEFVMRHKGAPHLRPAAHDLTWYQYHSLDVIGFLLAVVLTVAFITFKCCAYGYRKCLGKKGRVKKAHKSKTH

UGT1A1 [2] = target: T1, UGT1A1; experiment: Inhibition of UGT1A1-mediated glucuronidation of 3-hydroflavone; format: biochemical; details: 40 µM inhibitor; data not shown
UGT1A3 [3] = target: T2, UGT1A3 (Homo sapiens, UniProt P35503); experiment: UGT1A3 glucuronidation kinetics of flavonols; format: in vitro ADME; details: substrate inhibition constant
T2 sequence (P35503 29-534): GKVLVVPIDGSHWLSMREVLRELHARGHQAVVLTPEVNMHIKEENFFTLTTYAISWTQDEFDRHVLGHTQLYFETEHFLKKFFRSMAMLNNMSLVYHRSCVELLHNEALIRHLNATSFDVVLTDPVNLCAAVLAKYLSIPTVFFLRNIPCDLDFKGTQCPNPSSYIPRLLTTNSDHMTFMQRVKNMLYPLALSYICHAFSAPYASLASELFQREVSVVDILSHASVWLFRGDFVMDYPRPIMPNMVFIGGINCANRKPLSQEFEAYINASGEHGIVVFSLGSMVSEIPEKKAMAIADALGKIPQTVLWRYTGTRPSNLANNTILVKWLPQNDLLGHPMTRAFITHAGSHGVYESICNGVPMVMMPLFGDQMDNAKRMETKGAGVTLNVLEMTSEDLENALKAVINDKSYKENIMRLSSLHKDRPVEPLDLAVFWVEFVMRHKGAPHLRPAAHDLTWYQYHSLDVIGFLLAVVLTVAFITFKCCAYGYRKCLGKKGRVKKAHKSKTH

UGT1A7 = target: T3, UGT1A7 (Homo sapiens, UniProt Q9HAW7); experiment: UGT1A7 glucuronidation kinetics of flavonols; format: in vitro ADME; details: formation of 3-O-glucuronide, substrate inhibition constant
T3 sequence (Q9HAW7 26-530): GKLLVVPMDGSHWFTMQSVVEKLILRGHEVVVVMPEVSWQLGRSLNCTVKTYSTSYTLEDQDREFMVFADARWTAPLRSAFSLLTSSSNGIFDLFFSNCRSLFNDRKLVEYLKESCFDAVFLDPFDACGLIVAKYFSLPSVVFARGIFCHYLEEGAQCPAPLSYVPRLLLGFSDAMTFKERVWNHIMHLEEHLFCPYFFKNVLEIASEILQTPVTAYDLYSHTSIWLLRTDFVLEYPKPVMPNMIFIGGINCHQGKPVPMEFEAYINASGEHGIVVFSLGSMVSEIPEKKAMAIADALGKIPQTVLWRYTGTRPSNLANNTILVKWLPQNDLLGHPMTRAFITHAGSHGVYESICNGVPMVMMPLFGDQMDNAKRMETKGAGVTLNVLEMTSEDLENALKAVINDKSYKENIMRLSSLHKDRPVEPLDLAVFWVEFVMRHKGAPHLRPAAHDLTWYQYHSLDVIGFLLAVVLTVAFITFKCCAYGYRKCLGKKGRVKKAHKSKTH

UGT1A8 = target: T4, UGT1A8 (Homo sapiens, UniProt Q9HAW9); experiment: UGT1A8 glucuronidation kinetics of flavonols; format: in vitro ADME; details: formation of 3-O-glucuronide
T4 sequence (Q9HAW9 26-530): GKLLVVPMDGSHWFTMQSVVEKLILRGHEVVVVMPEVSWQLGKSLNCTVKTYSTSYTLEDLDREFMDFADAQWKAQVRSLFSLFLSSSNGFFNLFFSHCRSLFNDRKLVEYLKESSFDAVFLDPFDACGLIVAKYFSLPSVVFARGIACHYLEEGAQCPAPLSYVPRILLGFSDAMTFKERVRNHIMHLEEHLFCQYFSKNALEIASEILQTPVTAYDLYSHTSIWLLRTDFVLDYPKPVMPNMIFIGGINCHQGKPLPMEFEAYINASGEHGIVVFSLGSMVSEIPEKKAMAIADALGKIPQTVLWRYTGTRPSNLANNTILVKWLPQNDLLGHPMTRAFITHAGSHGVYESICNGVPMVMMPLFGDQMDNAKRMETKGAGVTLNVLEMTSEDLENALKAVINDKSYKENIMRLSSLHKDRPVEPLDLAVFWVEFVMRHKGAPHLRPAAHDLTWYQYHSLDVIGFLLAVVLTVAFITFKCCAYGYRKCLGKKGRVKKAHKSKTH

UGT1A9 [4] = target: T5, UGT1A9 (Homo sapiens, UniProt O60656); experiment: UGT1A9 glucuronidation kinetics of flavonols; format: in vitro ADME
T5 sequence (O60656 26-530): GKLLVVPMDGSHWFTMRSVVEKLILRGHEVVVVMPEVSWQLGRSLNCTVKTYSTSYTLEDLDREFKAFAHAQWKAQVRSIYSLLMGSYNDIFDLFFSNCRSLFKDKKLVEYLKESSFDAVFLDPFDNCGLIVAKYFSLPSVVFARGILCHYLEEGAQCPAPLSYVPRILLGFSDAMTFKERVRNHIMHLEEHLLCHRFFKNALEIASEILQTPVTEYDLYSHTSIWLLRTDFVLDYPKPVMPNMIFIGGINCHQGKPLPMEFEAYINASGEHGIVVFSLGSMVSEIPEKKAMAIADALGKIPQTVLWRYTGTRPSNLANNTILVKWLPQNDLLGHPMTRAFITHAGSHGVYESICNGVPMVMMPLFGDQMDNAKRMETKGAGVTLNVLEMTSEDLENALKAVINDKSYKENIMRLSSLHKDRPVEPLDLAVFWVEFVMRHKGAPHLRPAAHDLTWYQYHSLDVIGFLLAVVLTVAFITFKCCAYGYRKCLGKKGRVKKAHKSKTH

UGT1A10 = target: T6, UGT1A10 (Homo sapiens, UniProt Q9HAW8); experiment: UGT1A10 glucuronidation kinetics of flavonols; format: in vitro ADME; details: formation of 3-O-glucuronide, substrate inhibition constant
T6 sequence (Q9HAW8 26-530): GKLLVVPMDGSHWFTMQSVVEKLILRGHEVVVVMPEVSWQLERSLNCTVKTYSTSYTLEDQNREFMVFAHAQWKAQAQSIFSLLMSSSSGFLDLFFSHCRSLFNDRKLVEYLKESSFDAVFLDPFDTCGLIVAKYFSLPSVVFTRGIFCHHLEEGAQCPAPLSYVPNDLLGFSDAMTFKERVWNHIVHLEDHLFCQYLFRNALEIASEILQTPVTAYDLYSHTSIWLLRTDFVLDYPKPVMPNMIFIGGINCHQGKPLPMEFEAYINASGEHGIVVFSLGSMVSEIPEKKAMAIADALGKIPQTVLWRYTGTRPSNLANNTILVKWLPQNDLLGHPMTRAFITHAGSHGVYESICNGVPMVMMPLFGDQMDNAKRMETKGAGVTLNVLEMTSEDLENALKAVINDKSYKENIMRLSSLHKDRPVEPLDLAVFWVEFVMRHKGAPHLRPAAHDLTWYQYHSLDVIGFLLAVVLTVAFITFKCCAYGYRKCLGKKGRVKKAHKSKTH

UGT1A9 [5] = target: T5, UGT1A9; details: ref 32 (Chen et al.); cited from earlier work
UGT1A3 [6] = target: T2, UGT1A3; details: published observation; cited from earlier work

In the case of `O=c1c(O)c(-c2ccc(O)cc2)oc2cc(O)ccc12` [3,7,4’THF, 3,7,4’-tryhydroxyflavone], the Ks (UGT1A1 [1]; formation of 3-O-glucuronide) is reported as 5.41 ± 0.93 µM, the Ks (UGT1A1 [1]; formation of 7-O-glucuronide) is reported as 3.53 ± 0.86 µM and the “inhibition of glucuronidation of 3-hydroflavone by UGT1A1” value (UGT1A1 [2]) is reported as “completely inhibited”.

In the case of `O=c1c(O)c(-c2ccccc2)oc2cc(O)cc(O)c12` [3,5,7THF, 3,5,7-trihydroxyflavone], the Vmax (UGT1A1 [1]; formation of 3-O-glucuronide) is reported as 0.82 nmol/mg/min, the Ks (UGT1A1 [1]; formation of 3-O-glucuronide) is reported as 2.64 ± 0.89 µM and the Vmax (UGT1A1 [1]; formation of 7-O-glucuronide) is reported as 4.59 nmol/mg/min. It also gave a Ks (UGT1A1 [1]; formation of 7-O-glucuronide) of 1.22 ± 0.19 µM, a Ks (UGT1A3 [3]; formation of 3-O-glucuronide) of 17.86 ± 6.33 µM and a Ks (UGT1A3 [3]; formation of 7-O-glucuronide) of 9.95 ± 9.16 µM. The Ks (UGT1A7) was 55.75 ± 7.27 µM, the Vmax (UGT1A8) was 3.89 nmol/mg/min and the Ks (UGT1A8; substrate inhibition constant) was 37.28 ± 10.12 µM. It also gave a Km (UGT1A9 [4]; formation of 3-O-glucuronide) of 0.68 ± 0.16 µM, a Vmax (UGT1A9 [4]; formation of 3-O-glucuronide) of 7.41 ± 0.89 nmol/mg/min and a Ks (UGT1A9 [4]; formation of 3-O-glucuronide, substrate inhibition constant) of 7.43 ± 2.12 µM. It also gave a Km (UGT1A9 [4]; formation of 7-O-glucuronide) of 0.54 ± 0.08 µM, a Vmax (UGT1A9 [4]; formation of 7-O-glucuronide) of 2.56 ± 0.10 nmol/mg/min and a Ks (UGT1A10) of 73.48 ± 17.82 µM.

In the case of `O=c1c(O)c(-c2ccc(O)c(O)c2)oc2cc(O)cc(O)c12` [quercetin, 3,5,7,3’,4’-pentahydroxyflavone], the regioselectivity of glucuronidation (UGT1A9 [5]) is listed as 3-O-glucuronidation was most efficient with the highest CLint value.

In the case of `COc1ccc(C2CC(=O)c3c(O)cc(O)cc3O2)cc1O` (centres unmarked) [hesperetin, 4'-methoxy-3',5,7-trihydroxyflavanone], the glucuronide generated (UGT1A3 [6]) is given as “only 7-O-glucuronide was generated”.
